In patent publication US20140329863A1 (priority 2011, published 2014):

system: not given; assay: not given; details: not given

Compound	melting point [°C]
FC(F)(F)c1csc(Nc2cc3ccccc3cn2)n1 [compound 37, Isoquinolin-3-yl-(4-trifluoromethylthiazol-2-yl)-amine]	200 to 203
COc1ccc(Nc2nc(-c3cc(-c4ccccc4)no3)cs2)nc1 [compound 40, (5-Methoxypyridin-2-yl)-[4-(3-phenylisoxazol-5-yl)-thiazol-2-yl]-amine]	203 to 205
COc1ccnc(Nc2nc(-c3cc(-c4ccccc4)no3)cs2)c1 [compound 41, (4-Methoxypyridin-2-yl)-[4-(3-phenylisoxazol-5-yl)-thiazol-2-yl]-amine]	177 to 179

system: not listed separately; assay: Hepatic microsomal stability, mouse; details: mouse liver microsomes; predicted hepatic extraction

Compound	Hepatic Extraction Ratio Mouse
O=C(Cc1ccc(-c2ccccc2)cc1)NCc1ccccc1 [IND116065]	0.83

same assay, conditions: mouse, mouse liver microsomes, pH 7.4

Compound	half-life at 1 μM [min]
O=C(Cc1ccc(-c2ccccc2)cc1)NCc1ccccc1 [IND116065]	12.3

system: PrP^C in T98G cells; assay: not given; format: cell-based, human; details: not given

Compound	Potency relative to the bromo analog (IND61769) [times]
O=C(Cc1ccc(-c2ccccc2)cc1)NCc1ccccc1 [IND116065]	10

same assay, conditions: read-out: EC50 (μM) ELISA

Compound	EC50 [µM]
O=C(Cc1ccc(-c2ccccc2)cc1)NCc1ccccc1 [IND116065]	0.267

same assay, conditions: read-out: EC50 (μM) ELISA potency, PrP^C in T98G cells

Compound	EC50 [µM]
O=C(Cc1ccc(-c2ccccc2)cc1)NCc1ccccc1 [IND116065]	0.233

system: PrP^Sc in dividing ScN2a-c13 cells; assay: not given; details: dividing ScN2a-c13 cells

Compound	antiprion activity (in words)
CC(=O)c1ccc(NC(=O)c2sc3nc4c(cc3c2N)CCCC4)cc1 [IND-0024609]	inactive
FC(F)(F)c1csc(Nc2cc3ccccc3cn2)n1 [compound 37, Isoquinolin-3-yl-(4-trifluoromethylthiazol-2-yl)-amine]	less potent

same assay, conditions: read-out: EC50 (ELISA), reduction of PrP^Sc load; dividing ScN2a-c13 cells

Compound	EC50 [nM]
COc1ccc(Nc2nc(-c3cc(-c4ccccc4)no3)cs2)nc1 [compound 40, (5-Methoxypyridin-2-yl)-[4-(3-phenylisoxazol-5-yl)-thiazol-2-yl]-amine]	230
COc1ccnc(Nc2nc(-c3cc(-c4ccccc4)no3)cs2)c1 [compound 41, (4-Methoxypyridin-2-yl)-[4-(3-phenylisoxazol-5-yl)-thiazol-2-yl]-amine]	250

system: PrP^Sc in nondividing ScN2a-cl3 cells; assay: not given; format: cell-based, mouse; details: read-out: Non-Dividing ELISA EC50 (μM) Mean (n = 3); ScN2a-c13 non-dividing cells; mean n = 3

Compound	EC50 [µM]
FC(F)(F)c1csc(Nc2cc3ccccc3cn2)n1 [compound 37, Isoquinolin-3-yl-(4-trifluoromethylthiazol-2-yl)-amine]	> 32
COc1ccc(Nc2nc(-c3cc(-c4ccccc4)no3)cs2)nc1 [compound 40, (5-Methoxypyridin-2-yl)-[4-(3-phenylisoxazol-5-yl)-thiazol-2-yl]-amine]	> 32
COc1ccnc(Nc2nc(-c3cc(-c4ccccc4)no3)cs2)c1 [compound 41, (4-Methoxypyridin-2-yl)-[4-(3-phenylisoxazol-5-yl)-thiazol-2-yl]-amine]	> 32

system: T98G cells; assay: cells; format: cell-based, human; details: Homo sapiens, T98G, read-out: EC50 (μM) Calcein

Compound	EC50 [µM]
O=C(Cc1ccc(-c2ccccc2)cc1)NCc1ccccc1 [IND116065]	> 10

system: not listed separately; assay: Hepatic microsomal stability, human; details: human liver microsomes; predicted hepatic extraction

Compound	Hepatic Extraction Ratio Human
O=C(Cc1ccc(-c2ccccc2)cc1)NCc1ccccc1 [IND116065]	0.86

same assay, conditions: human, human liver microsomes, pH 7.4

Compound	half-life at 1 μM [min]
O=C(Cc1ccc(-c2ccccc2)cc1)NCc1ccccc1 [IND116065]	11.1

system: PrP^Sc in dividing ScN2a-cl3 cells; assay: not given; format: cell-based, mouse; set-up: Dividing ELISA pEC50 (μM) 1st Expt. / Dividing ELISA pEC50 (μM) 2nd Expt. / Dividing ELISA pEC50 (μM) 3rd Expt. / Dividing ELISA pEC50 (μM) Mean: unit not given here; details: ScN2a-cl3 dividing cells; 1st determination

Compound	Dividing ELISA pEC50 (μM) 1st Expt.
FC(F)(F)c1csc(Nc2cc3ccccc3cn2)n1 [compound 37, Isoquinolin-3-yl-(4-trifluoromethylthiazol-2-yl)-amine]	5.05
COc1ccc(Nc2nc(-c3cc(-c4ccccc4)no3)cs2)nc1 [compound 40, (5-Methoxypyridin-2-yl)-[4-(3-phenylisoxazol-5-yl)-thiazol-2-yl]-amine]	6.40
COc1ccnc(Nc2nc(-c3cc(-c4ccccc4)no3)cs2)c1 [compound 41, (4-Methoxypyridin-2-yl)-[4-(3-phenylisoxazol-5-yl)-thiazol-2-yl]-amine]	6.43

same assay, conditions: ScN2a-cl3 dividing cells; 2nd determination

Compound	Dividing ELISA pEC50 (μM) 2nd Expt.
FC(F)(F)c1csc(Nc2cc3ccccc3cn2)n1 [compound 37, Isoquinolin-3-yl-(4-trifluoromethylthiazol-2-yl)-amine]	5.14
COc1ccc(Nc2nc(-c3cc(-c4ccccc4)no3)cs2)nc1 [compound 40, (5-Methoxypyridin-2-yl)-[4-(3-phenylisoxazol-5-yl)-thiazol-2-yl]-amine]	6.96
COc1ccnc(Nc2nc(-c3cc(-c4ccccc4)no3)cs2)c1 [compound 41, (4-Methoxypyridin-2-yl)-[4-(3-phenylisoxazol-5-yl)-thiazol-2-yl]-amine]	6.78

same assay, conditions: ScN2a-cl3 dividing cells; 3rd determination

Compound	Dividing ELISA pEC50 (μM) 3rd Expt.
FC(F)(F)c1csc(Nc2cc3ccccc3cn2)n1 [compound 37, Isoquinolin-3-yl-(4-trifluoromethylthiazol-2-yl)-amine]	5.01
COc1ccc(Nc2nc(-c3cc(-c4ccccc4)no3)cs2)nc1 [compound 40, (5-Methoxypyridin-2-yl)-[4-(3-phenylisoxazol-5-yl)-thiazol-2-yl]-amine]	6.74
COc1ccnc(Nc2nc(-c3cc(-c4ccccc4)no3)cs2)c1 [compound 41, (4-Methoxypyridin-2-yl)-[4-(3-phenylisoxazol-5-yl)-thiazol-2-yl]-amine]	6.66

same assay, conditions: ScN2a-cl3 dividing cells; mean of three determinations

Compound	Dividing ELISA pEC50 (μM) Mean
FC(F)(F)c1csc(Nc2cc3ccccc3cn2)n1 [compound 37, Isoquinolin-3-yl-(4-trifluoromethylthiazol-2-yl)-amine]	5.07
COc1ccc(Nc2nc(-c3cc(-c4ccccc4)no3)cs2)nc1 [compound 40, (5-Methoxypyridin-2-yl)-[4-(3-phenylisoxazol-5-yl)-thiazol-2-yl]-amine]	6.70
COc1ccnc(Nc2nc(-c3cc(-c4ccccc4)no3)cs2)c1 [compound 41, (4-Methoxypyridin-2-yl)-[4-(3-phenylisoxazol-5-yl)-thiazol-2-yl]-amine]	6.62

same assay, conditions: read-out: Antiprion activity EC50; thienopyridine analogs

Compound	EC50 [µM]
CC(=O)c1ccc(NC(=O)c2sc3nc4c(cc3c2N)CCCC4)cc1 [IND-0024609]	> 10

same assay, conditions: read-out: Dividing ELISA EC50 (μM) 1st Expt.; ScN2a-cl3 dividing cells; 1st determination

Compound	EC50 [µM]
FC(F)(F)c1csc(Nc2cc3ccccc3cn2)n1 [compound 37, Isoquinolin-3-yl-(4-trifluoromethylthiazol-2-yl)-amine]	9
COc1ccc(Nc2nc(-c3cc(-c4ccccc4)no3)cs2)nc1 [compound 40, (5-Methoxypyridin-2-yl)-[4-(3-phenylisoxazol-5-yl)-thiazol-2-yl]-amine]	0.395
COc1ccnc(Nc2nc(-c3cc(-c4ccccc4)no3)cs2)c1 [compound 41, (4-Methoxypyridin-2-yl)-[4-(3-phenylisoxazol-5-yl)-thiazol-2-yl]-amine]	0.369

same assay, conditions: read-out: Dividing ELISA EC50 (μM) 2nd Expt.; ScN2a-cl3 dividing cells; 2nd determination

Compound	EC50 [µM]
FC(F)(F)c1csc(Nc2cc3ccccc3cn2)n1 [compound 37, Isoquinolin-3-yl-(4-trifluoromethylthiazol-2-yl)-amine]	7.26
COc1ccc(Nc2nc(-c3cc(-c4ccccc4)no3)cs2)nc1 [compound 40, (5-Methoxypyridin-2-yl)-[4-(3-phenylisoxazol-5-yl)-thiazol-2-yl]-amine]	0.11
COc1ccnc(Nc2nc(-c3cc(-c4ccccc4)no3)cs2)c1 [compound 41, (4-Methoxypyridin-2-yl)-[4-(3-phenylisoxazol-5-yl)-thiazol-2-yl]-amine]	0.166

same assay, conditions: read-out: Dividing ELISA EC50 (μM) 3rd Expt.; ScN2a-cl3 dividing cells; 3rd determination

Compound	EC50 [µM]
FC(F)(F)c1csc(Nc2cc3ccccc3cn2)n1 [compound 37, Isoquinolin-3-yl-(4-trifluoromethylthiazol-2-yl)-amine]	9.71
COc1ccc(Nc2nc(-c3cc(-c4ccccc4)no3)cs2)nc1 [compound 40, (5-Methoxypyridin-2-yl)-[4-(3-phenylisoxazol-5-yl)-thiazol-2-yl]-amine]	0.183
COc1ccnc(Nc2nc(-c3cc(-c4ccccc4)no3)cs2)c1 [compound 41, (4-Methoxypyridin-2-yl)-[4-(3-phenylisoxazol-5-yl)-thiazol-2-yl]-amine]	0.219

same assay, conditions: read-out: Dividing ELISA EC50 (μM) Mean; ScN2a-cl3 dividing cells; mean of three determinations

Compound	EC50 [µM]
FC(F)(F)c1csc(Nc2cc3ccccc3cn2)n1 [compound 37, Isoquinolin-3-yl-(4-trifluoromethylthiazol-2-yl)-amine]	8.66
COc1ccc(Nc2nc(-c3cc(-c4ccccc4)no3)cs2)nc1 [compound 40, (5-Methoxypyridin-2-yl)-[4-(3-phenylisoxazol-5-yl)-thiazol-2-yl]-amine]	0.229
COc1ccnc(Nc2nc(-c3cc(-c4ccccc4)no3)cs2)c1 [compound 41, (4-Methoxypyridin-2-yl)-[4-(3-phenylisoxazol-5-yl)-thiazol-2-yl]-amine]	0.251

system: N2a-cl3 cells; assay: cells; details: Mus musculus, N2a-cl3, read-out: Dividing Calcein EC50 (μM) Mean (n = 3)

Compound	EC50 [µM]
FC(F)(F)c1csc(Nc2cc3ccccc3cn2)n1 [compound 37, Isoquinolin-3-yl-(4-trifluoromethylthiazol-2-yl)-amine]	> 32
COc1ccc(Nc2nc(-c3cc(-c4ccccc4)no3)cs2)nc1 [compound 40, (5-Methoxypyridin-2-yl)-[4-(3-phenylisoxazol-5-yl)-thiazol-2-yl]-amine]	> 32
COc1ccnc(Nc2nc(-c3cc(-c4ccccc4)no3)cs2)c1 [compound 41, (4-Methoxypyridin-2-yl)-[4-(3-phenylisoxazol-5-yl)-thiazol-2-yl]-amine]	> 32
